From PMC7281506, “Bengamide Analogues Show A Potent Antitumor Activity against Colon Cancer Cells: A Preliminary Study” (Marine Drugs, 2020)
Read-outs that look alike come from different tables or passages of the source. Blank lines part the entries; values can stand above or below the compound they belong to.

Key:
cancer cell line A549 = system: cancer cell line A549; parameters: method as in PMID 26514647; settings: A549, Figure 1; read-out: IC50 (cytotoxicity); cited from earlier work
[1] = system: MDA-MB-435 human breast cancer cells; settings: cited from earlier work
T84 cells = assay: Cell cycle assay (PI, flow cytometry), T84; type: cell-based, human; settings: T84, 48 h; for G2/M phase change vs control: IC25 and IC50
Procedure: (§1) To assess the effect of treatments in the cell cycle, a cancer cell line (T84) and a normal cell line (CCD18) were seeded in 6-well plates at a density of 1.5 × 10^5 and 1 × 10^5 cells/well, respectively. […] In addition, untreated cells were used as a negative control and cells treated with 5-FU at its IC50 at 48 h as a positive control. After this time, the culture medium of each treatment was collected in a clean cytometry tube, the wells were washed with PBS at 4 °C and this wash was added to the previous tube. The cells were detached with a trypsin-EDTA mixture and also added to the tube. Next, the tubes were centrifuged at 3500 rpm for 3 min, the supernatant was discarded, and the pellet was resuspended in 100 µL of PBS. After this, 900 µL of 70% cold EtOH was added to each tube while the tubes were vortexed, then the tubes were placed on ice and incubated at 4 °C for 10 min. After this time, two washes were carried out with PBS to remove ethanol and the pellets were resuspended in 250 µL of PBS, to which 250 µL of DNA extraction solution was added (192 mL of 0.2 M Na2HPO4 + 8 mL of 0.1 M citric acid, pH = 7.8). The samples were incubated at 37 °C for 10 min, centrifuged and the supernatant discarded. Finally, 250 µL of propidium iodide (PI)/RNAse (ImmunoStep, Salamanca, Spain) solution was added and the samples were incubated for 10 min at 37 °C in the dark. Thereafter, the samples were analyzed by FAC Scan on a Becton Dickinson analyzer cytometer (Becton Dickinson, Franklin Lakes, NJ, USA).

[2] = system: SW480 colon cancer cell line; assay: Proliferation assay (Sulforhodamine B), SW480; type: cell-based; settings: Homo sapiens; SW480, 72 h treatment, mean ± SD of triplicate samples
Procedure: (§2) The T84, SW480, HCT15, HT29 and MC38 colon cancer cell lines were selected to assay the bengamide effect. A normal colon fibroblast cell line (CCD18) was included in the analysis. In addition, a cell line of another tumor type (breast cancer) was studied (MCF7). All cell lines were grown in Dulbecco’s modified Eagle’s medium (DMEM) supplemented with fetal bovine serum (10%) and a mix of penicillin-streptomycin (1%) (Sigma-Aldrich, Madrid, Spain). Cell lines were maintained at 37 °C and 5% CO2 in a humidified incubator.
(§3) The different cell lines were seeded in 48-well plates at a cell density of 3 × 10^3 cells/well for MC38, 5 × 10^3 cells/well for T84, SW480, HCT15 and CCD18, 15 × 10^3 cells/well for HT29 and 4 × 10^3 cells/well for MCF7. After attaching to the well, the treatments, Ben I and Ben V (analogues 5 and 10, respectively), were added in a wide range of doses determined by the cell line from an initial stock of 0.3 mg/mL for Ben I and 6.9 mg/mL for Ben V, both dissolved in water. The treatments were maintained for 72 h. Elapsed this time, the cells were fixed with trichloroacetic acid at 10%, stained with Sulforhodamine B (Sigma-Aldrich, Madrid, Spain) and the dye was lifted with Trizma® (Sigma-Aldrich, Madrid, Spain) at 10% following a previously established protocol. Doxorubicin and 5-Fluorouracil were used as reference compounds in breast and colon cell lines, respectively.

[3] = system: MC38 mouse colon cancer cell line; assay: Proliferation assay (Sulforhodamine B), MC38; type: cell-based; settings: MC-38, MC38, 72 h treatment, mean ± SD of triplicate samples
Procedure: as §2, §3

[4] = system: MCF7 breast cancer cell line; assay: Proliferation assay (Sulforhodamine B), MCF7; type: cell-based; settings: Homo sapiens; MCF7, 72 h treatment, mean ± SD of triplicate samples
Procedure: as §2, §3

[5] = Hemolysis test using human erythrocytes; type: cell-based; settings: human erythrocytes isolated from blood of healthy donors, 1 h at 37 °C, highest doses (range 0.01–40 µM), read-out: level of hemolysis
Procedure: (§4) To evaluate the effect of Ben I and Ben V compounds on blood cells, a hemolysis test using human erythrocytes and a toxicity test using WBC were carried out. Different blood cells (erythrocytes and WBC) were isolated from blood samples taken from healthy donors and exposed to a wide range of doses of both Ben I and Ben V compounds (0.01–40 µM) following our previously described protocol. Briefly, the erythrocytes were diluted 50 times their initial concentration in PBS, seeded in conical bottom 96-well plates and treated with the different treatments for 1 h at 37 °C under stirring. Following this, the plate was centrifuged, 100 µL of the supernatant was transferred to a new 96-well flat-bottom plate and the absorbance at 492 nm was determined. Erythrocytes treated with Triton X-100 to 20% were used as a positive control and as a negative control, erythrocytes treated with PBS were used. In the case of erythrocytes, the percentage of hemolysis (%HR) was calculated with the following formula: %HR=Abs(sample)−Abs(−control)/Abs(+control)−Abs(−control)×100.

human erythrocytes = assay: Hemolysis test using human erythrocytes; type: cell-based; settings: light microscopy after treatment
Procedure: as §4

[6] = system: CCD18 normal colon fibroblast cell line; assay: Proliferation assay (Sulforhodamine B), CCD18; type: cell-based; settings: Homo sapiens, CCD18, 72 h treatment, mean ± SD of triplicate samples
Procedure: as §2, §3

[7] = system: HCT15 resistant colon cancer cell line; assay: Proliferation assay (Sulforhodamine B), HCT15; type: cell-based; settings: Homo sapiens, HCT-15; HCT15, 72 h treatment, mean ± SD of triplicate samples
Procedure: as §2, §3

[8] = system: T84 colon cancer cell line; assay: Proliferation assay (Sulforhodamine B), T84; type: cell-based; settings: Homo sapiens; T84, 72 h treatment, mean ± SD of triplicate samples
Procedure: as §2, §3

CCD18 normal colon cells = assay: Cell cycle assay (PI, flow cytometry), CCD18; type: cell-based, human; settings: CCD18, 48 h; for SubG1 and S phase change vs control: doses of IC50
Procedure: as §1

[9] = Toxicity test in white blood cells (CCK-8); type: cell-based; settings: human; WBC, 1 and 12 h of exposure, all doses tested (0.01–40 µM)
Procedure: as §4, with “Erythrocytes treated with Triton X-100 to 20% were used as a positive control and as a negative control, erythrocytes treated with PBS were used.” left out
As for the WBCs, they were seeded in flat-bottom 96-well plates in RPMI-1640 medium supplemented with FBS (10%) and a mixture of antibiotic (1%) at a density of 2 × 10^4 cells/well. […] The CCK-8 reagent was added to each well and after 3 h of incubation the absorbance was measured at 450 and 620 nm to determine the viability according to the manufacturer.

[10] = system: HT29 colon cancer cell line; assay: Proliferation assay (Sulforhodamine B), HT29; type: cell-based; settings: Homo sapiens, HT-29; HT29, 72 h treatment, mean ± SD of triplicate samples
Procedure: as §2, §3

[11] = clinical candidate; cited from earlier work
[12] = read-out: IC50 (cytotoxicity), MDA-MB-435, Figure 1

Compound: CO[C@@H](C(=O)N[C@H]1CCc2ccccc2NC1=O)[C@H](O)[C@@H](O)[C@H](O)/C=C/C(C)(C)C [Ben IV]
- IC50 (cancer cell line A549): 9 nM

Compound: CO[C@@H](C(=O)N[C@H]1CCCCNC1=O)[C@H](O)[C@@H](O)[C@H](O)/C=C/C1CCCC1 [Ben II]
- IC50 [1, 12]: 440 nM

- IC50 [2]: 590 ± 70 nM
- IC50 [3]: 1600 ± 130 nM
- IC50 [4]: 490 ± 50 nM
- IC50 [7]: 1900 ± 150 nM
- IC50 [8]: 360 ± 30 nM
- IC50 [10]: 1020 ± 190 nM
Compound: CO[C@@H](C(=O)N[C@H]1CCCCNC1=O)[C@H](O)[C@@H](O)[C@H](O)/C=C/C(C)(C)C [Ben I]
- IC50 [1, 12]: 630 nM
- SubG1 phase change vs control (T84 cells): No differences were observed with the control
- G2/M phase change vs control (T84 cells): statistically significant (p < 0.05) G2/M phase increase
- hemolysis at 1 h [5]: ~2%
- erythrocytes agglutination or modification of morphology (human erythrocytes): none of these compounds caused erythrocytes agglutination or modification of their morphology
- IC50 [6]: 4700 ± 280 nM
- G2/M phase change vs control (CCD18 normal colon cells): slight increase
- SubG1 and S phase change vs control (CCD18 normal colon cells): marked increase
- viability [9]: ~100%

Compound: CO[C@@H](C(=O)N[C@H]1CCCCN(CCOC(=O)C2CCCCC2)C1=O)[C@H](O)[C@@H](O)[C@H](O)/C=C/C(C)(C)C [Ben III]
- IC50 [1, 12]: 17 nM

- IC50 [2]: 80 nM
- IC50 [3]: 6510 ± 1120 nM
- IC50 [4]: 130 ± 10 nM
- IC50 [7]: 2440 ± 250 nM
- IC50 [8]: 70 ± 20 nM
- IC50 [10]: 660 ± 180 nM
Compound: CO[C@@H](C(=O)N[C@@H](C)C(=O)NCCCOC(=O)C1CCCCC1)[C@H](O)[C@@H](O)[C@H](O)/C=C/C(C)(C)C [Ben V]
- IC50 ([1]; MDA-MB-435 human breast cancer cells): 4 nM
- G0/G1 and S phases change vs control (T84 cells): slight reduction
- SubG1 phase change vs control (T84 cells): No differences were observed with the control
- G2/M phase change vs control (T84 cells): this increase was much greater
- hemolysis at 1 h [5]: ~2%
- erythrocytes agglutination or modification of morphology (human erythrocytes): none of these compounds caused erythrocytes agglutination or modification of their morphology
- IC50 [6]: 5080 ± 390 nM
- G2/M phase change vs control (CCD18 normal colon cells): slight increase
- SubG1 and S phase change vs control (CCD18 normal colon cells): marked increase
- viability [9]: ~100%

- IC50 [4]: 40 ± 10 nM
Compound: COc1cccc2c1C(=O)c1c(O)c3c(c(O)c1C2=O)C[C@@](O)(C(=O)CO)C[C@@H]3O[C@H]1C[C@H](N)[C@H](O)[C@H](C)O1 [doxorubicin, reference compound]

- IC50 [2]: 6350 ± 540 nM
- IC50 [3]: 330 ± 10 nM
- IC50 [7]: 6580 ± 350 nM
- IC50 [8]: 2680 ± 160 nM
- IC50 [10]: 6140 ± 940 nM
Compound: O=c1[nH]cc(F)c(=O)[nH]1 [5-fluorouracil, reference compound]
- IC50 [6]: 7350 ± 410 nM

Compound: CCCCCCCCCCCCCC(=O)O[C@H]1CC[C@H](NC(=O)[C@H](OC)[C@H](O)[C@@H](O)[C@H](O)/C=C/C(C)C)C(=O)NC1 [Bengamide A, bengamide A]
- IC50 [1, 12]: 1 nM

Compound: CO[C@@H](C(=O)N[C@H]1CCCCNC1=O)[C@H](O)[C@@H](O)[C@H](O)/C=C/C(C)C [Bengamide E]
- IC50 [1, 12]: 3300 nM

Compound: CO[C@@H](C(=O)N[C@H]1CC[C@@H](OC(=O)C2CCCCC2)CNC1=O)[C@H](O)[C@@H](O)[C@H](O)/C=C/C(C)(C)C [LAF389]
- IC50 [1, 12]: 40 nM
- pharmacokinetic properties [11]: poor pharmacokinetic properties

Compound: CCCCCCCCCCCCCC(=O)O[C@H]1CC[C@H](NC(=O)[C@H](OC)[C@H](O)[C@@H](O)[C@H](O)/C=C/C(C)C)C(=O)N(C)C1 [Bengamide B]
- IC50 [1, 12]: 2.4 nM

Compound: Bengamide F
- IC50 [1, 12]: 2900 nM
